Laboratory results from doi:10.1101/2023.10.20.563248v1 (biorxiv, 2023).

Experiments:
Details in all cases: 1 µM; inhibitor
[1] = biological target: MAPKAPK2 (Homo sapiens, UniProt P49137)
[2] = biological target: MLK4 (Homo sapiens, UniProt Q5TCX8)
[3] = biological target: PIM3 (Homo sapiens, UniProt Q86V86)
[4] = biological target: CLK4 (Homo sapiens, UniProt Q9HAZ1)
[5] = biological target: SIK3 (Homo sapiens, UniProt Q9Y2K2)
[6] = biological target: GSG2 (Homo sapiens, UniProt Q8TF76)
[7] = biological target: GRK3 (Homo sapiens, UniProt P35626)
[8] = biological target: TAOK2 (Homo sapiens, UniProt Q9UL54)
[9] = biological target: CDK18 (Homo sapiens, UniProt Q07002)
[10] = biological target: CDK2 (Homo sapiens, UniProt P24941)
[11] = biological target: EPHA8 (Homo sapiens, UniProt P29322)
[12] = biological target: FGFR1 (Homo sapiens, UniProt P11362)
Sequence of FGFR1 (P11362 whole entry): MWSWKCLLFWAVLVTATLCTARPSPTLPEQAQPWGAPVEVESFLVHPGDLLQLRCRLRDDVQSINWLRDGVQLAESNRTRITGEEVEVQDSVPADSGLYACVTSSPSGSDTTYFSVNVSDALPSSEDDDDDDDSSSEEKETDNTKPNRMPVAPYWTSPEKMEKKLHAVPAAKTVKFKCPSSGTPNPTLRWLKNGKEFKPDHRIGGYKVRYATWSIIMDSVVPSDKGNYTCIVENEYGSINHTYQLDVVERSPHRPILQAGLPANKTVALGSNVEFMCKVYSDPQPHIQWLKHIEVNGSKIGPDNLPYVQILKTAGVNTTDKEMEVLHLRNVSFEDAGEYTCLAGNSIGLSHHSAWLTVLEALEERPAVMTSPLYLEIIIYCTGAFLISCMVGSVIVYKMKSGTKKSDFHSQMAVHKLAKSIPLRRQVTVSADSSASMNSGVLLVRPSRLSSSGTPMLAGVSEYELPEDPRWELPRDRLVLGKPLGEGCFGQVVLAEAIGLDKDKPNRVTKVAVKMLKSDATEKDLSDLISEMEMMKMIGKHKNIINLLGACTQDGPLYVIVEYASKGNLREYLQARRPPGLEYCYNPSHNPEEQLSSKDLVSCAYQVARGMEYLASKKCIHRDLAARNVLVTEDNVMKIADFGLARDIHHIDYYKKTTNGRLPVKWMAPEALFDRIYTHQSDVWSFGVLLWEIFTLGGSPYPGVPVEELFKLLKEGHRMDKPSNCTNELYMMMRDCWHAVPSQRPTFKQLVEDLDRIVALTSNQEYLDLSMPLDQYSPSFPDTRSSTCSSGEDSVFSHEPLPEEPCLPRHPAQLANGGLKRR

[13] = biological target: CSK (Homo sapiens, UniProt P41240)
[14] = biological target: PAK1 (Homo sapiens, UniProt Q13153)
[15] = biological target: HIPK3 (Homo sapiens, UniProt Q9H422)
[16] = biological target: ASK1 (Homo sapiens, UniProt Q99683)
[17] = biological target: AurB (Homo sapiens, UniProt Q96GD4)
[18] = biological target: CK1g3 (Homo sapiens, UniProt Q9Y6M4)
[19] = biological target: PIM1 (Homo sapiens, UniProt P11309)
[20] = biological target: ERBB2 (Homo sapiens, UniProt P04626)
[21] = biological target: FRK (Homo sapiens, UniProt P42685)
[22] = biological target: INSRR (Homo sapiens, UniProt P14616)
[23] = biological target: TGFBR2 (Homo sapiens, UniProt P37173)
Sequence of TGFBR2 (P37173 whole entry): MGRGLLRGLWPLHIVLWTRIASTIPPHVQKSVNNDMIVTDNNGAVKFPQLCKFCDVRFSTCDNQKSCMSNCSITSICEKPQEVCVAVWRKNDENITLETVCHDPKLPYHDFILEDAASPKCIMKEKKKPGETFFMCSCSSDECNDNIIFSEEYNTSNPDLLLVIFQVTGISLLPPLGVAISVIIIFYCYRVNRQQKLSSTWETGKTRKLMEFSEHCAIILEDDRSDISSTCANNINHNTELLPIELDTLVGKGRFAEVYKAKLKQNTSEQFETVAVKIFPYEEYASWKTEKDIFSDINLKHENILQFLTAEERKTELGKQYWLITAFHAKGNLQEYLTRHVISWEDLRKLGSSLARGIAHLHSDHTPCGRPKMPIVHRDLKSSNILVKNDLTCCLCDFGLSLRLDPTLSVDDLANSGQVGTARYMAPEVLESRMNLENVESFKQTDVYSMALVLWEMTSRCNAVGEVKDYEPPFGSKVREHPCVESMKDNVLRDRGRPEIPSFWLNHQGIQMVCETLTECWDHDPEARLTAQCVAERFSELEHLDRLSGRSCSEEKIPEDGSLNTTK

[24] = biological target: PLK3 (Homo sapiens, UniProt Q9H4B4)
[25] = biological target: SNK (Homo sapiens, UniProt Q9NYY3)
[26] = biological target: CAMK2B (Homo sapiens, UniProt Q13554)
Sequence of CAMK2B (Q13554 whole entry): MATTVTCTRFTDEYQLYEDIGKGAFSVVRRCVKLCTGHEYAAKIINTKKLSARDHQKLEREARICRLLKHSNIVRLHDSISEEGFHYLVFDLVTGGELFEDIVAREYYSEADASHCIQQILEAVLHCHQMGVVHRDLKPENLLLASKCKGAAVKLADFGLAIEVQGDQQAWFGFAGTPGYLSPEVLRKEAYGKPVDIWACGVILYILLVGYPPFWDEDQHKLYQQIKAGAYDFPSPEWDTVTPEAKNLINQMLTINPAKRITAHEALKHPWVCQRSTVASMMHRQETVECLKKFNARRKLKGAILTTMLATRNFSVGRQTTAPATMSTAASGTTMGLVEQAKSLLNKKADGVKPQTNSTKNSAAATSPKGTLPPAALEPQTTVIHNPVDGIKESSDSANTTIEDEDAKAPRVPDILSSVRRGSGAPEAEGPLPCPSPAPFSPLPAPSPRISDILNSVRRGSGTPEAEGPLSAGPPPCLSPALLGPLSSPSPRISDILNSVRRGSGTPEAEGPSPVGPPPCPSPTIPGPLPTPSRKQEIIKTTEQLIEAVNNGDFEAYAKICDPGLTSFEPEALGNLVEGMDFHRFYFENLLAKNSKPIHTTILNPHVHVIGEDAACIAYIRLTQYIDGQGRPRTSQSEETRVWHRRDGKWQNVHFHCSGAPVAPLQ

[27] = biological target: STK23 (Homo sapiens, UniProt Q9UPE1)
[28] = biological target: DAPK1 (Homo sapiens, UniProt P53355)
Sequence of DAPK1 (P53355 whole entry): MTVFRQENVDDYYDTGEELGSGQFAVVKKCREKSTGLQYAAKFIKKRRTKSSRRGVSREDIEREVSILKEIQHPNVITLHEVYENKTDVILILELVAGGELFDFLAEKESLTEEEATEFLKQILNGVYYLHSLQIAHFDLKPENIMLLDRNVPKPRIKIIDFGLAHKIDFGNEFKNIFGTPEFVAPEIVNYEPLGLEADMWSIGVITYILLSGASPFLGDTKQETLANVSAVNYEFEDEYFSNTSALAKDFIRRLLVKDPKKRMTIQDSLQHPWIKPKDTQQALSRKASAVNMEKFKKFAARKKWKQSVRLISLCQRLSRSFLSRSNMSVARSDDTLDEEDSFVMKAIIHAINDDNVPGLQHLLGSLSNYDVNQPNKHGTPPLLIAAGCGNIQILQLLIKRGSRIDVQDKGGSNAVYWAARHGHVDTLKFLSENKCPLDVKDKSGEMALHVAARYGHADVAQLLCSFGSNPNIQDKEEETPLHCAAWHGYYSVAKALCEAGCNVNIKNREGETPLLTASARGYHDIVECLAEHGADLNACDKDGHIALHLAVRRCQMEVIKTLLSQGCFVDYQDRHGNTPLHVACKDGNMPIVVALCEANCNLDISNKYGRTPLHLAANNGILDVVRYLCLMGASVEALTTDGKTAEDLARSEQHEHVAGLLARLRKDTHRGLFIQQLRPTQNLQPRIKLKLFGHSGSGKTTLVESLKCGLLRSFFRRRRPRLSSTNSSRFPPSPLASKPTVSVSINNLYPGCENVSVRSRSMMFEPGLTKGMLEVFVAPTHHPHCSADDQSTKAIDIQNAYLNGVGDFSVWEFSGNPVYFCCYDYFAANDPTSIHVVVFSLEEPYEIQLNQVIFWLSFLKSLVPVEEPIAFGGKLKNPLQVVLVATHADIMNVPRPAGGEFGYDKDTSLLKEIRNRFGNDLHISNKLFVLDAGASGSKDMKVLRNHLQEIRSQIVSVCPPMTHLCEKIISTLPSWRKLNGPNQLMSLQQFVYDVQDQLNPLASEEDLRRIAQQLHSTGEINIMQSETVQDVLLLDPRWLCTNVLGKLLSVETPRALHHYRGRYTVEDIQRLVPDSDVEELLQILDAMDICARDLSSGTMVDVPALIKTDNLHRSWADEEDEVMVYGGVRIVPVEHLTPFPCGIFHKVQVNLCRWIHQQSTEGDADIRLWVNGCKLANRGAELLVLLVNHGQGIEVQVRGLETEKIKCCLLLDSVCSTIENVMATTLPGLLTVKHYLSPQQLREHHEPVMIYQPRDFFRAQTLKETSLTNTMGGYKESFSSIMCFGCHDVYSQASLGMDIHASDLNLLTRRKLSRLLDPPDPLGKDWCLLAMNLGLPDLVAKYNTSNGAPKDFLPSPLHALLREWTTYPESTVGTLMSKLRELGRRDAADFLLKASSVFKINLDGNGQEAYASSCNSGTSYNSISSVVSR

[29] = biological target: BRSK2 (Homo sapiens, UniProt Q8IWQ3)
[30] = biological target: MET (Homo sapiens, UniProt P08581)
[31] = biological target: RPS6KA2 (Homo sapiens, UniProt Q15349)

Sequence of SIK3 (Q9Y2K2 whole entry): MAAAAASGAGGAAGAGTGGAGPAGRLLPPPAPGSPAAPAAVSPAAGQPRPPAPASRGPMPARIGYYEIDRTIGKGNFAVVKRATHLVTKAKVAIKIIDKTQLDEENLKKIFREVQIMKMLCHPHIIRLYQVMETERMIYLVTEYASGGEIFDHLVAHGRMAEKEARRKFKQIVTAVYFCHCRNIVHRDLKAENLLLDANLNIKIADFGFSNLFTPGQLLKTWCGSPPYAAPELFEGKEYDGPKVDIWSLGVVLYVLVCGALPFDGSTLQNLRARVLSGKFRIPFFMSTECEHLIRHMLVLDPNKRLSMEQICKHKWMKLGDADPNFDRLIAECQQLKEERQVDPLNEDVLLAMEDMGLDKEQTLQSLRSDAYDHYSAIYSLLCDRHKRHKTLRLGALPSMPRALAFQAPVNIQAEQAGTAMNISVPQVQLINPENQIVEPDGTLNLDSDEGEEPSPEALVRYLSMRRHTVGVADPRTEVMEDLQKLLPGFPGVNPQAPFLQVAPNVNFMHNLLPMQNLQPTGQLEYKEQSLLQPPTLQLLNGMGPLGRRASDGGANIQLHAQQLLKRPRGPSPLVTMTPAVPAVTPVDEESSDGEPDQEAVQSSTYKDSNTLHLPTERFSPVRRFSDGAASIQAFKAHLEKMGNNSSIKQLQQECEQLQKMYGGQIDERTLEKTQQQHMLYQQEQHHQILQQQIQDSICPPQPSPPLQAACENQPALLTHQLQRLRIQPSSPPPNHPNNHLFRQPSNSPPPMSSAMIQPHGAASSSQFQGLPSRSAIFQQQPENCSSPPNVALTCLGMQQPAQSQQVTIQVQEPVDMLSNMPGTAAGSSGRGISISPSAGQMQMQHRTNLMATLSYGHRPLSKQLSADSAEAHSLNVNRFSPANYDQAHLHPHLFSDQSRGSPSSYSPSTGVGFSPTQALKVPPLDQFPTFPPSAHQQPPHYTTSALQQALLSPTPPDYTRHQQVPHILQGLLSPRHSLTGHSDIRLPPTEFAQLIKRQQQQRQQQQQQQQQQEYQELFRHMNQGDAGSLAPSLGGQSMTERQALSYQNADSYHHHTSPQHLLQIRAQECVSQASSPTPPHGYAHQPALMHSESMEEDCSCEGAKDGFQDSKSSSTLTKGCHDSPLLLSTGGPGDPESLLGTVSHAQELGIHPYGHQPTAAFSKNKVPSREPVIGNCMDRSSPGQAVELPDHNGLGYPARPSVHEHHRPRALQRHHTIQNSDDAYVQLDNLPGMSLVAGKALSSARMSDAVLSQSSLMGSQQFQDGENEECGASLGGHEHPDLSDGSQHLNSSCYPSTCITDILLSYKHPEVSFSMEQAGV

- 21c Remaining activity, percent of control [%] [1]: 106.1%
- 21c Remaining activity, percent of control [%] [2]: 99.1%
- 21c Remaining activity, percent of control [%] [3]: 88.9%
- 21c Remaining activity, percent of control [%] [4]: 76.4%
- 21c Remaining activity, percent of control [%] [5]: 72.1%
- 21c Remaining activity, percent of control [%] [6]: 108.1%
- 21c Remaining activity, percent of control [%] [7]: 97.4%
- 21c Remaining activity, percent of control [%] [8]: 93.6%
- 21c Remaining activity, percent of control [%] [9]: 96.7%
- 21c Remaining activity, percent of control [%] [10]: 103.0%
- 21c Remaining activity, percent of control [%] [11]: 112.4%
- 21c Remaining activity, percent of control [%] [12]: 80.9%
- 21c Remaining activity, percent of control [%] [13]: 73.5%
- 21c Remaining activity, percent of control [%] [14]: 94.9%
- 21c Remaining activity, percent of control [%] [15]: 90.8%
- 21c Remaining activity, percent of control [%] [16]: 97.7%
- 21c Remaining activity, percent of control [%] [17]: 83.9%
- 21c Remaining activity, percent of control [%] [18]: 100.8%
- 21c Remaining activity, percent of control [%] [19]: 101.3%
- 21c Remaining activity, percent of control [%] [20]: 94.1%
- 21c Remaining activity, percent of control [%] [21]: 104.0%
- 21c Remaining activity, percent of control [%] [22]: 96.5%
- 21c Remaining activity, percent of control [%] [23]: 81.8%
- 21c Remaining activity, percent of control [%] [24]: 102.7%
- 21c Remaining activity, percent of control [%] [25]: 78.3%
- 21c Remaining activity, percent of control [%] [26]: 88.8%
- 21c Remaining activity, percent of control [%] [27]: 80.7%
- 21c Remaining activity, percent of control [%] [28]: 94.0%
- 21c Remaining activity, percent of control [%] [29]: 97.8%
- 21c Remaining activity, percent of control [%] [30]: 107.2%
- 21c Remaining activity, percent of control [%] [31]: 84.0%
Structure (SMILES): O=C1NCCCCCNc2nc(c3ccccc3n2)Nc2cc1[nH]n2 [21c, (Z)-3^1H-2,5,11-triaza-1(4,2)-quinazolina-3(3,5)-pyrazolacycloundecaphan-4-one]
